Experimental data: ChEMBL document CHEMBL3217471, “Prenyltransferase Inhibitors: Treating Human Ailments from Cancer to Parasitic Infections” (Medchemcomm, 2013)

What was measured:
[1] = molecular target: T1, Protein farnesyltransferase (Homo sapiens, UniProt P49354+P49356); assay: Inhibition of human recombinant FTase using [3H]farnesyldiphosphate; assay type: protein-complex assay
[2] = molecular target: Geranylgeranyl transferase type I (Homo sapiens, UniProt P49354+P53609); assay: Inhibition of human GGTase1 in human Burkitt lymphoma (Daudi) cell supernatant using [3H]geranylgeranyl
Homo sapiens = species: Homo sapiens; assay: Selectivity ratio of IC50 for human GGTase 1 in human Burkitt lymphoma (Daudi) cell supernatant to IC50 for human recombinant FTase
[3] = Inhibition of rat RabGGTase using [3H]GGPP by scintillation counting
[4] = molecular target: T1, Protein farnesyltransferase; assay: Binding affinity to FTase (unknown origin)
[5] = Inhibition of human RabGGTase using [3H]GGPP by scintillation counting

SMILES | IC50 [1] [nM] | IC50 [2] [nM] | further results
Cn1cncc1CN(Cc1cccc(C#N)c1)c1ccc(C#N)c(-c2cccc3ccccc23)c1 | 0.39 |  | 
O=C(O)C(Cl)(Cc1cccnc1)P(=O)(O)O (configuration not stated) |  |  | IC50 [3]: 16400 nM
CC(C)=CCC/C(C)=C/CC/C(C)=C/CO[P@@](=O)(O)OP(=O)(O)O [FARNESYL DIPHOSPHATE] |  |  | Kd [4]: 2 nM
NC(=O)N1CCC(CC(=O)N2CCC([C@H]3c4ncc(Br)cc4CCc4cc(Cl)cc(Br)c43)CC2)CC1 [LONAFARNIB] |  | > 50000 | 
N#Cc1ccc2c(c1)CN(S(=O)(=O)c1cccs1)[C@@H](Cc1ccccc1)CN2Cc1ncc[nH]1 | 1.35 | > 1000 | 
Cn1cncc1[C@@](N)(c1ccc(Cl)cc1)c1ccc2c(c1)c(-c1cccc(Cl)c1)cc(=O)n2C [TIPIFARNIB] |  | > 50000 | 
N#Cc1ccc2cc1Oc1ccc3c(c1)[C@@H](CCC3)N1CC[C@@H](NCc3cncn3C2)C1=O [(1R,5R)-30-OXO-19-OXA-2,6,10,12-TETRAAZAHEXACYCLO[18.6.2.1^{2,5}.1^{14,18}.0^{8,12}.0^{23,27}]TRIACONTA-8,10,14(29),15,17,20(28),21,23(27)-OCTAENE-17-CARBONITRILE (STRUCTURAL MIX)] | 0.02 |  | 
O=C(NCCCn1ccnc1)[C@H]1CN([C@@H]2c3ccc(Cl)cc3CCc3cc(Br)cnc32)CCN1C(=O)NC1CCCCC1 | 0.4 |  | 
COc1ccc(S(=O)(=O)N2Cc3cc(-c4ccc(C#N)o4)ccc3N(Cc3cncn3C)C[C@H]2Cc2ccc(OC(=O)NCc3ccccc3)cc2)cc1 | > 9700 | > 99500 | IC50 [3]: 42 nM
COc1ccc(S(=O)(=O)N2Cc3cc(C#N)ccc3N(Cc3cncn3C)C[C@H]2Cc2ccccc2)cc1 | 6 | > 99500 | IC50 [3]: 724 nM
O=C(O)C(O)(Cc1cccnc1)P(=O)(O)O (configuration not stated) |  |  | IC50 [5]: 600000 nM; IC50 [3]: 24100 nM
O=C(O)C(O)(Cc1cnc2ccccn12)P(=O)(O)O (single isomer, unassigned; (+)) [(2-HYDROXY-3-IMIDAZO[1,2-A]PYRIDIN-3-YL-2-PHOSPHONOPROPIONIC ACID (ENANTIONMERS)] |  |  | IC50 [3]: 1300 nM

Second part, led by results:

IC50 [1] [nM] | IC50 [2] [nM] | SMILES | further results
25 | 5 | CC(C)C[C@H](NC(=O)c1ccc(NC[C@@H](N)CS)cc1-c1ccccc1)C(=O)O | 
53000 | 9.5 | Cc1nc[nH]c1CN1CCN(C(=O)N[C@@H](CC(C)C)C(=O)O)[C@@H](Cc2ccccc2)C1=O [GGTI-2418] | Ratio IC50 (Homo sapiens): > 5000
5600 | 21 | Cc1ccccc1-c1cc(NCc2c[nH]cn2)ccc1C(=O)N[C@@H](CC(C)C)C(=O)O | Ratio IC50 (Homo sapiens): > 250
1.8 | 50 | CC(C)[C@@H](CO[C@@H](Cc1ccccc1)C(=O)N[C@@H](CCS(C)(=O)=O)C(=O)O)NC[C@@H](N)CS | 
> 50000 | 466 | Cc1ccccc1S(=O)(=O)N1[C@H](C(C)(C)C)C[C@@H](C(=O)O)[C@@H]1c1ccc(Cl)cc1 | Ratio IC50 (Homo sapiens): 100
 | 50 | CSCC[C@H](NC(=O)c1ccc(NC[C@@H](N)CS)cc1-c1ccccc1)C(=O)O | 
